The results in this text go back to ChEMBL document CHEMBL5512645, “A novel antimicrobial peptide with broad-spectrum and exceptional stability derived from the natural peptide Brevicidine” (Eur J Med Chem, 2024).

One series has as its system Bacillus subtilis. Briefly: Antibacterial activity against Bacillus subtilis ATCC 23857 incubated for 18 to 24 hrs by broth microdilution method. In kind it is functional. The note with it: time 18-24 hrs. On the technique in general: Broth dilution looks for growth in wells or tubes with falling amounts of substance.
In series [1] the test system is Staphylococcus aureus. Briefly: Antibacterial activity against Staphylococcus aureus ATCC 25923 assessed as fold increase in MIC pretreated with Zncl2 followed by compound addition and measured after 2 hrs by broth microdilution method. Type of series: functional.
Another series relates to Pseudomonas aeruginosa. Briefly: Antibacterial activity against Pseudomonas aeruginosa ATCC 27853 incubated for 18 to 24 hrs by broth microdilution method. Type of series: functional. The settings on record: time 18-24 hrs.
Another series concerns Acinetobacter baumannii. Briefly: Antibacterial activity against Acinetobacter baumannii ATCC 19606 incubated for 18 to 24 hrs by broth microdilution method. In kind it is functional. The settings on record: time 18-24 hrs.
The test system of a further series is Erythrocyte. Briefly: Hemolytic activity in mouse red blood cell assessed as hemolysis incubated for 1 hr. In kind it is toxicity, cell-based.
For another series, the system named is Enterococcus faecalis. Briefly: Antibacterial activity against Enterococcus faecalis ATCC 29212 incubated for 18 to 24 hrs by broth microdilution method. Type of series: functional. The note with it: time 18-24 hrs.
For the next series, the system named is Escherichia coli. Briefly: Antibacterial activity against Escherichia coli ATCC 25922 incubated for 18 to 24 hrs by broth microdilution method. In kind it is functional. The settings on record: time 18-24 hrs.
Series [2] deals with Staphylococcus aureus. Briefly: Antibacterial activity against Staphylococcus aureus ATCC 25923 incubated for 18 to 24 hrs by broth microdilution method. In kind it is functional. The note with it: time 18-24 hrs.
The test system of series [3] is Staphylococcus aureus. Briefly: Antibacterial activity against Staphylococcus aureus ATCC 25923 assessed as fold increase in MIC pretreated with Na-cl followed by compound addition and measured after 2 hrs by broth microdilution method. In kind it is functional.
The subject of series [4] is Staphylococcus epidermidis. Briefly: Antibacterial activity against Staphylococcus epidermidis ATCC 12228 incubated for 18 to 24 hrs by broth microdilution method. Type of series: functional. The note with it: time 18-24 hrs.
Another series has as its system Klebsiella pneumoniae. Briefly: Antibacterial activity against Klebsiella pneumoniae ATCC 700603 incubated for 18 to 24 hrs by broth microdilution method. The note with it: time 18-24 hrs. Type of series: functional.

`CCC(C)CCC(=O)N[C@H](CC(N)=O)C(=O)N[C@H](Cc1c[nH]c2ccccc12)C(=O)N[C@H](Cc1c[nH]c2ccccc12)C(=O)N[C@H](CCCN)C(=O)N[C@@H](CCCN)C(=O)NCC(=O)N[C@H](CCCN)C(=O)N[C@@H](Cc1c[nH]c2ccccc12)C(=O)N[C@@H]1C(=O)N[C@@H]([C@@H](C)CC)C(=O)NCC(=O)N[C@@H](CO)C(=O)O[C@@H]1C` (mixture of isomers): the MIC stood at 16 µM against Bacillus subtilis; 4 µM against Pseudomonas aeruginosa; 32 µM in the series on Acinetobacter baumannii; 128 µM in the series on Enterococcus faecalis; 8 µM in the series on Escherichia coli; 32 µM against Staphylococcus aureus [2]. The MIC is 32 µM in series [4] and 8 µM in the series on Klebsiella pneumoniae. The “fold change (FC)” value with Staphylococcus aureus [1] and with Staphylococcus aureus [3] was 4 in each case. Further, in the series with Erythrocyte, the MHC is 64 µM.

Broadly, the MIC is the smallest concentration in the dilution series that meets the test's criterion for growth inhibition. Read a high MIC as a need for much substance.
